From US20120122727A1, “IN VITRO METHOD FOR PREDICTING WHETHER A COMPOUND IS GENOTOXIC IN VIVO” (priority 2009, published 2012) come the findings set out here.

Where two headings read alike, the source gives them in different places.

This data set relates to primary mouse hepatocytes. Description: Gene expression in primary mouse hepatocytes, GTX vs non-GTX (four-gene classifier, 24 h). The protocol: Hepatocyte cells were incubated and exposed to a compound for 24 h before being harvested for RNA isolation.
The results of the gene expression analysis may then be fed into a statistical software package such as R, Splus, or Microsoft Excel. […] If none or only one of these criteria were met, no point was scored.
For each of the four genes mentioned in the table (1700007K13RIK, GAS2L3, SPC25, DDIT4L), a statistical comparison was made between the normalized expression data for these genes. […] If none or only one of these criteria were met, no point was scored.
For each compound, the sum of the scores for four genes is taken. If this score is 0, a compound can be believed not to be genotoxic. If this score is 1, 2, 3 or 4, a compound is genotoxic.
If none or only one of these criteria were met, no point was scored.

[1] abbreviates: 24 h exposure, average of four replicates.
The mark [2] stands for this setting: log 2 ratio, 24 h exposure, concentration per Table 4.
[3] abbreviates: sum of scores for four genes, 0 = not genotoxic, 1, 2, 3 or 4 = genotoxic.

Turning to `CC(C)(c1ccc(O)cc1)c1ccc(O)cc1` [BPA, Bisphenol A], under setting [1], the “score 1700007K13RIK” value was 0, the “score DDIT4L” value came to 0, the “score GAS2L3” value is given as 0 and the “score SPC25” value is listed as 0. Moreover, under setting [2], the “Ratios of gene expression treated/untreated 1700007K13RIK” value was −0.0382, the “Ratios of gene expression treated/untreated DDIT4L” value amounted to 0.0293, the “Ratios of gene expression treated/untreated GAS2L3” value is −0.06 and the “Ratios of gene expression treated/untreated SPC25” value is −0.0457. Further, the Total score under setting [3] is reported as 0.
As for `ClC(Cl)(Cl)Cl` [CCI4, Carbon tetrachloride], under setting [1], the “score 1700007K13RIK” value is given as 0, the “score DDIT4L” value is reported as 0, the “score GAS2L3” value is listed as 0 and the “score SPC25” value is recorded as 0. Also, under setting [2], the “Ratios of gene expression treated/untreated 1700007K13RIK” value is listed as 0.3906, the “Ratios of gene expression treated/untreated DDIT4L” value was determined as 0.4894, the “Ratios of gene expression treated/untreated GAS2L3” value is on record as −0.3188 and the “Ratios of gene expression treated/untreated SPC25” value worked out at 0.3544. The compound further showed a Total score under setting [3] of 0.
For `O=C(O)Cc1ccccc1Nc1c(Cl)cccc1Cl` [DF, Diclofenac], the “Ratios of gene expression treated/untreated 1700007K13RIK” value is listed as 0.09622, the “Ratios of gene expression treated/untreated DDIT4L” value was 0.1268, the “Ratios of gene expression treated/untreated GAS2L3” value is listed as −0.2839 and the “Ratios of gene expression treated/untreated SPC25” value is given as 0.4079. Further, under setting [1], the “score 1700007K13RIK” value is given as 0, the “score DDIT4L” value came to 0, the “score GAS2L3” value stood at 0 and the “score SPC25” value was found to be 0. Further, under setting [3], the Total score was 0.
As to `CCC[CH2][Sn]([CH2]CCC)([CH2]CCC)[O][Sn]([CH2]CCC)([CH2]CCC)[CH2]CCC` [TBTO, Bis(tri-n-butyltin)oxide], under setting [1], the “score 1700007K13RIK” value was 0, the “score DDIT4L” value is listed as 0, the “score GAS2L3” value is recorded as 0 and the “score SPC25” value is 0. Besides, under setting [2], the “Ratios of gene expression treated/untreated 1700007K13RIK” value was determined as 0.09131, the “Ratios of gene expression treated/untreated DDIT4L” value was found to be 0.319, the “Ratios of gene expression treated/untreated GAS2L3” value is −0.0161 and the “Ratios of gene expression treated/untreated SPC25” value worked out at 0.2186. Under setting [3], this compound had a Total score of 0.
Consider `Clc1cc2c(cc1Cl)Oc1cc(Cl)c(Cl)cc1O2` [TCDD, 2,3,7,8-Tetrachlorodibenzodioxin], for which, under setting [1], the “score 1700007K13RIK” value was 0, the “score DDIT4L” value is 0, the “score GAS2L3” value amounted to 0 and the “score SPC25” value was 0. Under setting [2], the “Ratios of gene expression treated/untreated 1700007K13RIK” value is on record as 0.0752, the “Ratios of gene expression treated/untreated DDIT4L” value turned out to be 0.2646, the “Ratios of gene expression treated/untreated GAS2L3” value is 0.22 and the “Ratios of gene expression treated/untreated SPC25” value came to 0.01802. The compound also returned a Total score under setting [3] of 0.
Consider `CCCCCCCCCCCCCC(=O)O[C@@H]1[C@@H](C)[C@@]2(O)[C@@H](C=C(CO)C[C@]3(O)C(=O)C(C)=C[C@@H]23)[C@@H]2C(C)(C)[C@]12OC(C)=O` [TPA, Tetradecanoylphorbol Acetate], for which, under setting [1], the “score 1700007K13RIK” value is listed as 0, the “score DDIT4L” value is reported as 0, the “score GAS2L3” value came to 0 and the “score SPC25” value is given as 0. Under setting [2], the “Ratios of gene expression treated/untreated 1700007K13RIK” value is on record as −0.0617, the “Ratios of gene expression treated/untreated DDIT4L” value is listed as 0.05594, the “Ratios of gene expression treated/untreated GAS2L3” value is listed as 0.01747 and the “Ratios of gene expression treated/untreated SPC25” value is reported as 0.03809. Under setting [3], this compound yielded a Total score of 0.
With `Cc1cccc(Nc2cc(Cl)nc(SCC(=O)O)n2)c1C` [Wyeth, Wy-14,643], under setting [1], the “score 1700007K13RIK” value worked out at 0, the “score DDIT4L” value was found to be 0, the “score GAS2L3” value amounted to 0 and the “score SPC25” value was 0. Under setting [2], the “Ratios of gene expression treated/untreated 1700007K13RIK” value was −0.3527, the “Ratios of gene expression treated/untreated DDIT4L” value is listed as −0.1013, the “Ratios of gene expression treated/untreated GAS2L3” value is reported as −0.7113 and the “Ratios of gene expression treated/untreated SPC25” value is on record as −0.0756. The Total score under setting [3] came to 0.
As for `OC[C@@H](O)[C@@H](O)[C@H](O)[C@H](O)CO` [dMan, D-Mannitol], under setting [1], the “score 1700007K13RIK” value was 0, the “score DDIT4L” value came out at 0, the “score GAS2L3” value is given as 0 and the “score SPC25” value amounted to 0. For the same compound, under setting [2], the “Ratios of gene expression treated/untreated 1700007K13RIK” value came to 0.02382, the “Ratios of gene expression treated/untreated DDIT4L” value amounted to 0.03421, the “Ratios of gene expression treated/untreated GAS2L3” value was −0.2175 and the “Ratios of gene expression treated/untreated SPC25” value is −0.0363. Moreover, the Total score under setting [3] came to 0.
As to `COc1ccc(C)cc1N` [pCres, Para-Cresidine], the “Ratios of gene expression treated/untreated 1700007K13RIK” value was 0.2086, the “Ratios of gene expression treated/untreated DDIT4L” value came to 1.066, the “Ratios of gene expression treated/untreated GAS2L3” value came out at 1.562 and the “Ratios of gene expression treated/untreated SPC25” value stood at 1.331. The Total score amounted to 3, the “score 1700007K13RIK” value is given as 0, the “score DDIT4L” value is reported as 1 and the “score GAS2L3” value worked out at 1. Further, the “score SPC25” value is on record as 1.
